Source: US20190282566A1, “USE OF FLIBANSERIN IN THE TREATMENT OF OBESITY” (Sprout Pharmaceuticals, Inc., priority 2005, published 2019)

Assays:
[1] = 13-week dietary admixture study in rats, body weight; assay type: in vivo
Method: To test the efficacy of Flibanserin in the treatment of obesity groups of the rats per sex per group (gang-housed) received Flibnanserin at dosages of 0 (control), 100, 200, and 600 mg/kg/day via dietary admixture. The test compound was mixed with the food to obtain a 3% premix. This premix was prepared in week −1 and drug week 7 and was used to prepare the substance/food mixtures for all individual groups. The substance/food concentration was calculated using the mean daily food intake from the study week before. The substance/food mixture was made weekly for every dose group and stored under darkness in the animal room. The concentration, homogeneity and stability of the test substance in the food was checked during study week 2 with reanalysis one and four weeks later. One further check of concentration and homogeneity was performed in week 13. The body weight of each animal was determined and recorded once a week including the pretest acclimation period, in the morning on the same day of the week.
The following tables presents the results of the above described experiments as absolute body weights at start of treatment (week −1) as well as in drug week 6 and 13, including percentage change compared to controls. (in parentheses).

5-HT1A receptor = molecular target: T1, 5-HT1A receptor (Homo sapiens, UniProt P08908); settings: cited from earlier work
T1 sequence (P08908 1-422): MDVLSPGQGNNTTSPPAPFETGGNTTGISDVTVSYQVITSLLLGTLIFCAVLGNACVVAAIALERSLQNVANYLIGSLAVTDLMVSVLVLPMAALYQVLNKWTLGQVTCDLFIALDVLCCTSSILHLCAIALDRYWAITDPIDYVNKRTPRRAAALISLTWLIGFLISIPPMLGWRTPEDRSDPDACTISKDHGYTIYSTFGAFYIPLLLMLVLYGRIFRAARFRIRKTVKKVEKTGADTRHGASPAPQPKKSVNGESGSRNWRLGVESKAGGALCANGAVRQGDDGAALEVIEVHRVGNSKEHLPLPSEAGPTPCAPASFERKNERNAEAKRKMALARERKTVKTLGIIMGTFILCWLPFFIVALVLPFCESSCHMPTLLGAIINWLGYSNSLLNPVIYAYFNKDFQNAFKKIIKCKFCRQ

5-HT2-receptor family = settings: cited from earlier work
[2] = female rats, 100 mg/kg/day via diet, drug week 6
[3] = female rats, 100 mg/kg/day via diet, drug week 13
[4] = female rats, 100 mg/kg/day via diet, drug week −1 (start of treatment)
[5] = female rats, 200 mg/kg/day via diet, drug week 6
[6] = female rats, 200 mg/kg/day via diet, drug week 13
[7] = female rats, 200 mg/kg/day via diet, drug week −1 (start of treatment)
[8] = female rats, 600 mg/kg/day via diet, drug week 6
[9] = female rats, 600 mg/kg/day via diet, drug week 13
[10] = female rats, 600 mg/kg/day via diet, drug week −1 (start of treatment)
[11] = male rats, 100 mg/kg/day via diet, drug week 6
[12] = male rats, 100 mg/kg/day via diet, drug week 13
[13] = male rats, 100 mg/kg/day via diet, drug week −1 (start of treatment)
[14] = male rats, 200 mg/kg/day via diet, drug week 6
[15] = male rats, 200 mg/kg/day via diet, drug week 13
[16] = male rats, 200 mg/kg/day via diet, drug week −1 (start of treatment)
[17] = male rats, 600 mg/kg/day via diet, drug week 6
[18] = male rats, 600 mg/kg/day via diet, drug week 13
[19] = male rats, 600 mg/kg/day via diet, drug week −1 (start of treatment)

O=c1[nH]c2ccccc2n1CCN1CCN(c2cccc(C(F)(F)F)c2)CC1 [BIMT 17 BS, 1-[2-(4-(3-trifluoromethyl-phenyl)piperazin-1-yl)ethyl]-2,3-dihydro-1H-benzimidazol-2-one]
Mean absolute body weight [1, 2]: 213.6 grams | percent change to controls (body weight) [1, 2]: −6.8% | Mean absolute body weight [1, 3]: 234.5 grams | percent change to controls (body weight) [1, 3]: −10.3% | Mean absolute body weight [1, 4]: 141.3 grams | percent change to controls (body weight) [1, 4]: +0.1% | Mean absolute body weight [1, 5]: 209.7 grams | percent change to controls (body weight) [1, 5]: −8.5% | Mean absolute body weight [1, 6]: 234.9 grams | percent change to controls (body weight) [1, 6]: −10.2% | Mean absolute body weight [1, 7]: 142.2 grams | percent change to controls (body weight) [1, 7]: +0.7% | Mean absolute body weight [1, 8]: 196.0 grams | percent change to controls (body weight) [1, 8]: −14.4% | Mean absolute body weight [1, 9]: 225.8 grams | percent change to controls (body weight) [1, 9]: −13.7% | Mean absolute body weight [1, 10]: 140.7 grams | percent change to controls (body weight) [1, 10]: −0.4% | difference compared to controls at study end (body weight decrease) ([1]; females, 100 mg/kg/day): 10% | difference compared to controls at study end (body weight decrease) ([1]; females, 200 mg/kg/day): 10% | difference compared to controls at study end (body weight decrease) ([1]; females, 600 mg/kg/day): 14% | Mean absolute body weight [1, 11]: 340.9 grams | percent change to controls (body weight) [1, 11]: −7.4% | Mean absolute body weight [1, 12]: 397.4 grams | percent change to controls (body weight) [1, 12]: −9.8% | Mean absolute body weight [1, 13]: 188.1 grams | percent change to controls (body weight) [1, 13]: −1.7% | Mean absolute body weight [1, 14]: 340.4 grams | percent change to controls (body weight) [1, 14]: −7.5% | Mean absolute body weight [1, 15]: 400.9 grams | percent change to controls (body weight) [1, 15]: −9.0% | Mean absolute body weight [1, 16]: 189.3 grams | percent change to controls (body weight) [1, 16]: −1.0% | Mean absolute body weight [1, 17]: 284.8 grams | percent change to controls (body weight) [1, 17]: −22.7% | Mean absolute body weight [1, 18]: 333.2 grams | percent change to controls (body weight) [1, 18]: −24.3% | Mean absolute body weight [1, 19]: 186.8 grams | percent change to controls (body weight) [1, 19]: −2.4% | difference compared to controls at study end (body weight decrease) ([1]; males, 100 mg/kg/day): 10% | difference compared to controls at study end (body weight decrease) ([1]; males, 200 mg/kg/day): 9% | difference compared to controls at study end (body weight decrease) ([1]; males, 600 mg/kg/day): 24% | body weight gain of males and females ([1]; rats, 100, 200 and 600 mg/kg/day via diet, in almost all drug weeks, versus controls): significantly decreased | affinity for the 5-HT1A receptor (5-HT1A receptor): shows affinity | affinity for the 5-HT2-receptor family (5-HT2-receptor family): shows affinity
